Data as given in publication PMC5716539, “The acute glucose lowering effect of specific GPR120 activation in mice is mainly driven by glucagon-like peptide 1” (PLoS ONE, 2017).

Experiments:
[1] = target: human GPR40 (Homo sapiens, UniProt O14842); test: DMR assay in CHO-hGPR40 cells; type: cell-based
Protocol: DMR (dynamic mass redistribution) was measured by resonant waveguide grating (RWG) using an Epic biosensor (Corning). CHO-hGPR120, CHO-mGPR120 and CHO cells in DMEM/F-12 (Invitrogen) were cultured in fibronectin coated 384-well Epic plates (Corning) at 37°C, 95% humidity and 5% CO2 for 5 hours with 10% FBS (Sigma), followed by 19 hours without FBS. CHO-hGPR40 cells were cultured at 37°C, 95% humidity and 5% CO2 for 20–24 hours in Ham’s F-12 Nutrient Mix with GlutaMAX (Invitrogen) supplemented with Non-Essential Amino Acids (Gibco) and 10% FBS (Sigma) in fibronectin coated 384-well Epic plates (Corning). Following the incubations culture media was replaced with HBSS (Invitrogen), 20 mM HEPES (Invitrogen), pH 7.4 and 1% DMSO and equilibrated to 26°C in the Epic for thirty min before addition of agonists and detection of DMR.

[2] = test system: islets from GPR120 null mice; test: cAMP production in dispersed islet cells from GPR120 null mice; type: cell-based, mouse; conditions: 10 μM agonist
Protocol: Mouse islets were isolated from pancreas by collagenase digestion, handpicked under microscope following multiple washing steps and dispersed to single cells using TrypLE Express (Gibco). The dispersed islet cells (20 000 cells/well) were incubated with the GPR120 agonists for 30 min in 96-well black plates (Corning) at 37°C in Krebs ringer phosphate Hepes buffer, pH 7.4, with 11 mM Glucose, 0.1% BSA and 0.5 mM 3-isobutyl-1-methylxanthine followed by addition of d2-labeled cAMP and anti-cAMP Cryptate in conjugation and lysis buffer (Cisbio). Produced cAMP was detected with homogenous time resolved fluorescence (HTRF) (λex = 340 nm, λem = 665 and 615 nm) using a Pherastar (BMG Labtech).

[3] = test system: GPR120 null mice; test: OGTT in male GPR120 null mice; type: in vivo, mouse
Protocol: OGTT tests were performed in lean male mice (body weight 27-32g), randomized on body weight, fasted for 16 hours. An oral glucose load (2 g/kg) was administered 30 min (AZ13581837, 7 and 18 mg/kg) or 60 min (Metabolex-36, 10, 30 and 100 mg/kg) after oral dosing with the GPR120 agonists and blood glucose was measured at -30, 0, 10, 25, 40, 60 and 90 min post glucose administration. The specificity of Metabolex-36 was examined in male GPR120 null mice. The administration time for the GPR120 agonists was optimized depending on the pharmacokinetic profile of each compound, in order to maximize the plasma exposure of the compounds during the experiments.

[4] = test system: lean mice; test: Plasma total GLP-1 levels after oral administration in mice; type: in vivo, mouse; conditions: 30 min after AZ13581837 or 60 min after Metabolex-36, oral, vs respective control group
Protocol: In separate experiments, mice were pretreated with the GLP-1 receptor antagonist exendin 9–39 (30 nmol/kg, Bachem; intraperitoneally) alone or in combination with the GPR120 agonists, 15 min prior to the IVGTT. Insulin and glucose were measured 0, 1, 5, 10, 20 and 40 min after intravenous (iv) glucose administration. In separate groups of mice total GLP-1 levels were measured 60 min after oral administration of Metabolex-36 or 30 min after AZ13581837 and in corresponding vehicle (0.5% HPMC, 0.1% Tween-80) dosed mice. Blood samples were collected in EDTA coated tubes, centrifuged at 10000xg for 4 min, and plasma was separated and stored frozen until analyzed.
Glucose was measured using a glucometer (AccuCheck, Bayer). Circulating hormones were measured using specific ELISA kits; insulin (ultra-sensitive mouse insulin, Crystal Chemistry), and total and active GLP-1 (Millipore).

[5] = Pharmacokinetic properties; type: in vivo, mice; conditions: insufficient for chronic treatment
[6] = test system: mouse islets; set-up: method as in PMID 24663807; conditions: cited from earlier work
[7] = test system: GPR120 null mice; test: IVGTT in female GPR120 null mice; type: in vivo, mouse
Protocol: Lean female mice (body weight 20–25 g), were randomized on body weight and fasted 4 hours prior to the IVGTT. Metabolex-36 (100 mg/kg) was administered orally 60 min and AZ13581837 (35mg/kg) 30 min before the IVGTT ([…]). Control mice were given vehicle (0.5% HPMC, 0.1% Tween-80) at corresponding time points. The specificity of AZ13581837 was examined in IVGTT in GPR120 null mice. GPR120 agonist doses were selected to reach plasma levels of at least 10 times over the in vitro EC50 value to achieve maximal activation of GPR120 (S2 Appendix). Thirty minutes prior to the glucose load, the mice were anaesthetised (20 mg/kg fluanisone/0.8 mg/kg fentanyl (Hypnorm®, Janssen, Beerse, Belgium) and 10 mg/kg midazolam (Dormicum®, Hoffman-LaRoche, Basel, Switzerland)) to allow for rapid blood sampling. The mice were kept at a heating pad to maintain body temperature.
In the IVGTT, the acute insulin response (AIR) was calculated as the mean of suprabasal 1 and 5 min values, and the glucose elimination was quantified using the glucose elimination constant (KG) calculated as the slope of the logarithmic transformation of circulating glucose between 1 and 20 min after the glucose bolus. Multiple comparisons between the different groups were performed by one-way ANOVA. Tukey’s or Bonferroni’s post hoc test were used to calculate statistical differences between the groups. […]

Chain of human GPR40 (O14842 whole entry): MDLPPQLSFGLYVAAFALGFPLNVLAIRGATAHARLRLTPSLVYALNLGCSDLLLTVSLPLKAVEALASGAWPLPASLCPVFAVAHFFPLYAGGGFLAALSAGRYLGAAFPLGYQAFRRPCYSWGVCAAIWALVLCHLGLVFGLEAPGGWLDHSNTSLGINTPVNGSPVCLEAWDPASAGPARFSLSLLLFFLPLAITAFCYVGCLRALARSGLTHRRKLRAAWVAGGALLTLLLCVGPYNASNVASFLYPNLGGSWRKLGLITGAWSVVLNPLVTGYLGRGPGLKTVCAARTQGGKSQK

Molecule | DMR response in CHO-hGPR40 cells [1] | cAMP production in islets from GPR120 null mice [2] | Effect on oral glucose tolerance in GPR120 null mice [3] | Total GLP-1 levels [4] | Pharmacokinetic properties (half-life) [5] | Somatostatin secretion in vitro from mouse islets [6] | Glucose elimination in GPR120 null mice ([7]; IVGTT) | Acute insulin secretion in GPR120 null mice ([7]; vs vehicle of same genotype)
3-(3,5-difluoro-4-((3-methyl-1-phenyl-1H-pyrazol-5-yl)methoxy)phenyl)-2-methylpropanoic acid [Metabolex-36] | Neither AZ13581837 nor Metabolex-36 were able to induce a DMR response | no effect | no effect | significant increase | short half-life | reduce somatostatin secretion |  | 
C#Cc1cc(Oc2cccnc2)cc(N2Cc3ccccc3S2(=O)=O)c1 [AZ13581837, 2-(3-ethynyl-5-(3-pyridyloxy)phenyl)-3H-1,2-benzothiazole 1,1-dioxide] | Neither AZ13581837 nor Metabolex-36 were able to induce a DMR response | no effect |  | significant increase | short half-life |  | no effect | no effect
